Assay results taken from patent publication US8461328B2, “Tricyclic heterocyclic compounds, compositions and methods of use thereof” (Genentech, Inc., priority 2010, dated 2013).

What was measured:
Format in all cases: biochemical
JAK3 = target: T1, JAK3 (Homo sapiens, UniProt P52333); experiment: JAK3 inhibition (Table 4); details: read-out: JAK3 Ki
T1 construct: made in house; host or cells: SF9 insect cells (baculovirus)

JAK1 = target: T2, JAK1 (Homo sapiens, UniProt P23458); experiment: JAK1 inhibition (Table 4); details: read-out: JAK1 Ki
T2 construct: made in house; host or cells: SF9 insect cells (baculovirus)
T2 sequence (P23458 852-1154): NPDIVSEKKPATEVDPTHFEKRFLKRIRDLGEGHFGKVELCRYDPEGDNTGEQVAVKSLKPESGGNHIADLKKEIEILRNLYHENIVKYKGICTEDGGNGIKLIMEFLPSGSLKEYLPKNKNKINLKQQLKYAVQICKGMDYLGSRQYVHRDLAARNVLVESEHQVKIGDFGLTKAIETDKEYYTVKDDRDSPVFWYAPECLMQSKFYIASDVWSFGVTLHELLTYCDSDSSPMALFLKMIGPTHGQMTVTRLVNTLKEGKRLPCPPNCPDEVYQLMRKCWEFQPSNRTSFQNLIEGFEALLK

JAK2 = target: T3, JAK2 (Homo sapiens, UniProt O60674); experiment: JAK2 inhibition (Table 4); details: read-out: JAK2 Ki
T3 construct: made in house; host or cells: SF9 insect cells (baculovirus)
T3 sequence (O60674 812-1132): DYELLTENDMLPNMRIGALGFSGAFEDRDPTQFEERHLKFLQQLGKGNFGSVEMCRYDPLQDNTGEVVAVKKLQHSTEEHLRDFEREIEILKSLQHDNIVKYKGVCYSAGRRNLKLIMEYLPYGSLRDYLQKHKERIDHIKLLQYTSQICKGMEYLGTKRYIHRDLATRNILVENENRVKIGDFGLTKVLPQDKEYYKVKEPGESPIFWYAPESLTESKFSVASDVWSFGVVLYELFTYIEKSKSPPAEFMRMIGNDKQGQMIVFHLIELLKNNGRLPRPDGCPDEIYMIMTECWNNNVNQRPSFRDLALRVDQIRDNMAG

TYK2 = target: T4, TYK2 (Homo sapiens, UniProt P29597); experiment: TYK2 inhibition (Table 4)
T4 construct: made in house; host or cells: SF9 insect cells (baculovirus)
T4 sequence (P29597 873-1187): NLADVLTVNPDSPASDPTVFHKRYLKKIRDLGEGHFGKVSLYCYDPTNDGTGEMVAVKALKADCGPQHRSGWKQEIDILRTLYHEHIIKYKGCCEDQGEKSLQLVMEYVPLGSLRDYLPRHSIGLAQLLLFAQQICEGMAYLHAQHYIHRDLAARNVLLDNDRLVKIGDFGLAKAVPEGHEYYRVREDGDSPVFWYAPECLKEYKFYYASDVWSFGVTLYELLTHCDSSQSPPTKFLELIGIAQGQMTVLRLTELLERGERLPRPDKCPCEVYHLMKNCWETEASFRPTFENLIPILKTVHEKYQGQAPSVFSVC

T1 sequence (P52333 783-1124): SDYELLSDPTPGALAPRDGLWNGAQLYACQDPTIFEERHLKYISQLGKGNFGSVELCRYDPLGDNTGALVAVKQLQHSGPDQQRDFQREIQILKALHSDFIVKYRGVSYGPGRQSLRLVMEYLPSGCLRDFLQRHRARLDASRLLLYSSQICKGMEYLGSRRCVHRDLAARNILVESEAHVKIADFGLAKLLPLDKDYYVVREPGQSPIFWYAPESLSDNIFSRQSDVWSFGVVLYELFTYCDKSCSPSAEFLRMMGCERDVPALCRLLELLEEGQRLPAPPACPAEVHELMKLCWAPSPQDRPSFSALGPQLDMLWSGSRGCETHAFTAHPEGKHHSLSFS

Compound `Cc1nc2cnc3[nH]ccc3c2n1[C@H]1CC[C@H](OC(=O)N(C)C)CC1` [Example 605, Trans dimethyl-carbamic acid 4-(2-methyl-6H-1,2,3,5,6-tetraaza-as-indacen-1-yl)-cyclohexyl ester] has a Ki (JAK3) of 152 nM, a Ki (JAK1) of 15.2 nM and a Ki (JAK2) of 43.1 nM. It also gave a Ki (TYK2) of 129 nM.

For `CC(C)(C#N)C(=O)N1CCC[C@@H](n2cnc3cnc4[nH]ccc4c32)C1` [Example 297, 2,2-Dimethyl-3-oxo-3-[(R)-3-(6H-1,3,5,6-tetraaza-as-indacen-1-yl)-piperidin-1-yl]-propionitrile], the Ki (JAK3) was 21 nM, the Ki (JAK1) was 3.91 nM and the Ki (JAK2) was 5.28 nM. It also gave a Ki (TYK2) of 31.5 nM.

With `Cc1nc2cnc3[nH]ccc3c2n1C1CC2CCC1C2` (centres unmarked) [Example 121a, 1-Bicyclo[2.2.1]hept-2-yl-2-methyl-1,6-dihydro-1,2,3,5,6-tetraaza-as-indacene] the Ki (JAK3) was 7.35 nM, the Ki (JAK1) was 0.32 nM and the Ki (JAK2) was 1.8 nM. It also gave a Ki (TYK2) of 2.35 nM.

Work on `N#CC1(C(=O)N2CCC[C@@H](n3cnc4cnc5[nH]ccc5c43)C2)CC1` [Example 221, 1-[(R)-3-(6H-1,3,5,6-Tetraaza-as-indacen-1-yl)-piperidine-1-carbonyl]-cyclopropanecarbonitrile] yielded a Ki (JAK3) of 8.12 nM, a Ki (JAK1) of 2.52 nM and a Ki (JAK2) of 3.92 nM. The Ki (TYK2) was 9.37 nM.

`C[C@@H](O)c1nc2cnc3[nH]ccc3c2n1[C@@H]1CCCN(C(=O)CC(F)(F)F)C1` [Example 785, 3,3,3-Trifluoro-1-{(R)-3-[2-((R)-1-hydroxy-ethyl)-6H-1,3,5,6-tetraaza-as-indacen-1-yl]-piperidin-1-yl}-propan-1-one] showed a Ki (JAK3) of 566 nM, a Ki (JAK1) of 31.9 nM and a Ki (JAK2) of 373 nM. For the same compound, the Ki (TYK2) was 278 nM.

Work on `CC(CC#N)N1CCC(n2c(C3CCOC3)nc3cnc4[nH]ccc4c32)CC1` (racemic) [Example 391, 3-{4-[2-(Tetrahydro-furan-3-yl)-6H-1,3,5,6-tetraaza-as-indacen-1-yl]-piperidin-1-yl}-butyronitrile] yielded a Ki (JAK3) of 35.8 nM, a Ki (JAK1) of 7.53 nM and a Ki (JAK2) of 27.1 nM. It also gave a Ki (TYK2) of 91.9 nM.

In the case of `O=c1ccn(Cc2nc3cnc4[nH]ccc4c3n2C2CCOCC2)c(=O)[nH]1` [Example 470, 1-[1-(Tetrahydro-pyran-4-yl)-1,6-dihydro-1,3,5,6-tetraaza-as-indacen-2-ylmethyl]-1H-pyrimidine-2,4-dione], the Ki (JAK3) is reported as 64.8 nM, the Ki (JAK1) is reported as 196 nM and the Ki (JAK2) is reported as 557 nM. The Ki (TYK2) was 357 nM.

In the case of `N#CCCN1CCC(n2c(C(F)(F)F)nc3cnc4[nH]ccc4c32)CC1` [Example 256, 3-[4-(-2-Trifluoromethyl-6H-1,3,5,6-tetraaza-as-indacen-1-yl)-piperidin-1-yl]-propionitrile], the Ki (JAK3) is reported as 9.96 nM, the Ki (JAK1) is reported as 7.86 nM and the Ki (JAK2) is reported as 9.21 nM. It also gave a Ki (TYK2) of 68.8 nM.

`CS(=O)(=O)c1ccc(S(=O)(=O)N2CCC(n3cnc4cnc5[nH]ccc5c43)CC2)cc1` [Example 450, 1-(1-(4-(methylsulfonyl)phenylsulfonyl)piperidin-4-yl)-1,6-dihydroimidazo[4,5-d]pyrrolo[2,3-b]pyridine] showed a Ki (JAK3) of 659 nM, a Ki (JAK1) of 3.06 nM and a Ki (JAK2) of 10.2 nM. The Ki (TYK2) was 32.8 nM.

In the case of `O=CN1CCC(n2cnc3cnc4[nH]ccc4c32)C(F)(F)C1` (centres unmarked) [Example 180, 3,3-Difluoro-4-(6H-1,2,3,5,6-tetraaza-as-indacen-1-yl)-piperidine-1-carbaldehyde], the Ki (JAK3) is reported as 101 nM, the Ki (JAK1) is reported as 5.55 nM and the Ki (JAK2) is reported as 19.9 nM. For the same compound, the Ki (TYK2) was 63.2 nM.

Work on `c1cc2c(ncc3nnn(C4CCCOC4)c32)[nH]1` (single isomer, unassigned) [Example 459, 1-(Tetrahydro-pyran-3-yl)-1,6-dihydro-1,2,3,5,6-pentaaza-as-indacene] yielded a Ki (JAK3) of 282 nM, a Ki (JAK1) of 34 nM and a Ki (JAK2) of 59.9 nM. The Ki (TYK2) was 127 nM.

Work on `c1cc2c(ncc3nc(C4CCCN4)n(C4CCCOC4)c32)[nH]1` (single isomer, unassigned) [Example 668] yielded a Ki (JAK3) of 2620 nM, a Ki (JAK1) of 1020 nM and a Ki (JAK2) of 2940 nM. For the same compound, the Ki (TYK2) was 3240 nM.

`CC(C)(C)OC(=O)N[C@H]1CC[C@H](n2nnc3cnc4[nH]ccc4c32)CC1` [Example 276, [4-(6H-1,2,3,5,6-Pentaaza-as-indacen-1-yl)-cyclohexyl]-carbamic acid tert-butyl ester] showed a Ki (JAK3) of 378 nM, a Ki (JAK1) of 12.1 nM and a Ki (JAK2) of 32.3 nM. It also gave a Ki (TYK2) of 460 nM.

In the case of `O=C(Cc1nc2cnc3[nH]ccc3c2n1C1CCCOC1)NC1CCC(F)(F)CC1` (racemic) [Example 972, N-(4,4-Difluoro-cyclohexyl)-2-[1-(tetrahydro-pyran-3-yl)-1,6-dihydro-1,3,5,6-tetraaza-as-indacen-2-yl]-acetamide], the Ki (JAK3) is reported as 89.1 nM, the Ki (JAK1) is reported as 27.6 nM and the Ki (JAK2) is reported as 113 nM. For the same compound, the Ki (TYK2) was 194 nM.

In the case of `N#CCCN1CCC(n2c(CCNC(=O)C3CC3)nc3cnc4[nH]ccc4c32)CC1` [Example 377, Cyclopropanecarboxylic acid (2-{1-[1-(2-cyano-ethyl)-piperidin-4-yl]-1,6-dihydro-1,3,5,6-tetraaza-as-indacen-2-yl}-ethyl)-amide], the Ki (JAK3) is reported as 50.3 nM, the Ki (JAK1) is reported as 3.64 nM and the Ki (JAK2) is reported as 29.5 nM. It also gave a Ki (TYK2) of 185 nM.

In the case of `O=C(N[C@H]1CC[C@H](n2cnc3cnc4[nH]ccc4c32)CC1)OC1CCNCC1` [Example 141, Trans[4-(6H-1,2,3,5,6-Tetraaza-as-indacen-1-yl)-cyclohexyl]-carbamic acid piperidin-4-yl ester], the Ki (JAK3) is reported as 393 nM, the Ki (JAK1) is reported as 8.44 nM and the Ki (JAK2) is reported as 23.7 nM. The Ki (TYK2) was 330 nM.

`Cc1nc2cnc3[nH]ccc3c2n1C1CCc2cn[nH]c2C1` (racemic) [Example 488] showed a Ki (JAK3) of 87 nM, a Ki (JAK1) of 31.9 nM and a Ki (JAK2) of 37.1 nM. The Ki (TYK2) was 188 nM.

For `C[C@@H](O)c1nc2cnc3[nH]ccc3c2n1C1CCC(CCS(C)(=O)=O)CC1` (stereo partly drawn) [Example 778, (R)-1-{1-[4-(2-methanesulfonyl-ethyl)-cyclohexyl]-1,6-dihydro-1,3,5,6-tetraaza-as-indacen-2-yl}-ethanol], the Ki (JAK3) was 42.4 nM, the Ki (JAK1) was 0.65 nM and the Ki (JAK2) was 13.2 nM. It also gave a Ki (TYK2) of 6.89 nM.

Compound `O=C(CN1CCC[C@@H](n2cnc3cnc4[nH]ccc4c32)C1)c1ccccc1` [Example 225, 1-Phenyl-2-[(R)-3-(6H-1,3,5,6-tetraaza-as-indacen-1-yl)-piperidin-1-yl]-ethanone] has a Ki (JAK3) of 118 nM, a Ki (JAK1) of 59.6 nM and a Ki (JAK2) of 127 nM. The Ki (TYK2) was 817 nM.

With `C[C@@H](O)c1nc2cnc3[nH]ccc3c2n1C1CCNCC1(F)F` (single isomer, unassigned) [Example 939] the Ki (JAK3) was 5.58 nM, the Ki (JAK1) was 0.68 nM and the Ki (JAK2) was 18.1 nM. It also gave a Ki (TYK2) of 7.2 nM.

Work on `c1ccc(CN2CCC(n3c(C4CNC4)nc4cnc5[nH]ccc5c43)CC2)cc1` [Example 162, 2-Azetidin-3-yl-1-(1-benzyl-piperidin-4-yl)-1,6-dihydro-1,2,3,5,6-tetraaza-as-indacene] yielded a Ki (JAK3) of 46.8 nM, a Ki (JAK1) of 7.45 nM and a Ki (JAK2) of 23.1 nM. For the same compound, the Ki (TYK2) was 677 nM.

`O=C(Cc1nc2cnc3[nH]ccc3c2n1C1CCNCC1)N1CCS(=O)(=O)CC1` [Example 262, 1-(1,1-Dioxo-1lambda*6*-thiomorpholin-4-yl)-2-(1-piperidin-4-yl-1,6-dihydro-1,3,5,6-tetraaza-as-indacen-2-yl)-ethanone] showed a Ki (JAK3) of 96.5 nM, a Ki (JAK1) of 21.2 nM and a Ki (JAK2) of 663 nM. The Ki (TYK2) was 165 nM.

`C[C@@H](O)c1nc2cnc3[nH]ccc3c2n1[C@@H]1CCCN(C(=O)CC2CC2)C1` [Example 791, 2-Cyclopropyl-1-{(R)-3-[2-((R)-1-hydroxy-ethyl)-6H-1,3,5,6-tetraaza-as-indacen-1-yl]-piperidin-1-yl}-ethanone] was tested, and the Ki (JAK3) was 822 nM, the Ki (JAK1) was 82.4 nM and the Ki (JAK2) was 1080 nM. It also gave a Ki (TYK2) of 814 nM.

Compound `CC(C)CC(=O)NC1CCC(n2nnc3cnc4[nH]ccc4c32)CC1` (centres unmarked) [Example 883, 3-Methyl-N-[4-(6H-1,2,3,5,6-pentaaza-as-indacen-1-yl)-cyclohexyl]-butyramide] has a Ki (JAK3) of 89.3 nM, a Ki (JAK1) of 4.61 nM and a Ki (JAK2) of 15.8 nM. For the same compound, the Ki (TYK2) was 244 nM.

With `O=C(Cc1nc2cnc3[nH]ccc3c2n1C1CCCOC1)NCC(F)F` (racemic) [Example 973, N-(2,2-Difluoro-ethyl)-2-[1-(tetrahydro-pyran-3-yl)-1,6-dihydro-1,3,5,6-tetraaza-as-indacen-2-yl]-acetamide] the Ki (JAK3) was 130 nM, the Ki (JAK1) was 23 nM and the Ki (JAK2) was 152 nM. For the same compound, the Ki (TYK2) was 215 nM.

Work on `CC(C)(O)c1nc2cnc3[nH]ccc3c2n1C1CCN(CCC#N)CC1` [Example 335, 3-{4-[2-(1-Hydroxy-1-methyl-ethyl)-6H-1,3,5,6-tetraaza-as-indacen-1-yl]-piperidin-1-yl}-propionitrile] yielded a Ki (JAK3) of 67.6 nM, a Ki (JAK1) of 31.2 nM and a Ki (JAK2) of 127 nM. It also gave a Ki (TYK2) of 944 nM.

Work on `Cc1nc2cnc3[nH]ccc3c2n1C1CC1` [Example 425, 1-Cyclopropyl-2-methyl-1,6-dihydro-1,3,5,6-tetraaza-as-indacene] yielded a Ki (JAK3) of 177 nM, a Ki (JAK1) of 83.4 nM and a Ki (JAK2) of 97.8 nM. It also gave a Ki (TYK2) of 399 nM.

`CC(CC#N)N1CCC(n2c(CC3CC3)nc3cnc4[nH]ccc4c32)CC1` (racemic) [Example 401, 3-[4-(2-Cyclopropylmethyl-6H-1,3,5,6-tetraaza-as-indacen-1-yl)-piperidin-1-yl]-butyronitrile] was tested, and the Ki (JAK3) was 35.4 nM, the Ki (JAK1) was 9.49 nM and the Ki (JAK2) was 22.8 nM. The Ki (TYK2) was 96.8 nM.

`CCC(C)Cc1nc2cnc3[nH]ccc3c2n1C1CCN(CCC#N)CC1` (racemic) [Example 122, 3-{4-[2-(2-Methyl-butyl)-6H-1,2,3,5,6-tetraaza-as-indacen-1-yl]-piperidin-1-yl}-propionitrile] showed a Ki (JAK3) of 83.4 nM, a Ki (JAK1) of 62.3 nM and a Ki (JAK2) of 281 nM. It also gave a Ki (TYK2) of 1050 nM.
